Reference: PMC9146215, “Design of D-Amino Acids SARS-CoV-2 Main Protease Inhibitors Using the Cationic Peptide from Rattlesnake Venom as a Scaffold” (Pharmaceuticals, 2022)
Positions of bridges follow the written chain, without caps; N, C: chain ends. Non-standard residues stand in square brackets, D forms with d. Residues, ends and D or L forms follow the SMILES beside them. No end group written: not given here.

Experiments:
[1] = target: T1, SARS-CoV-2 3CL^pro (Severe acute respiratory syndrome coronavirus 2, UniProt P0DTD1); assay: SARS-CoV-2 3CLpro fluorogenic (DABCYL/EDANS substrate) inhibition assay; format: biochemical; details: 0.5 µM 3CLpro, n = 3; for IC50: 30 min pre-incubation with inhibitor at RT, 50 µM substrate, 37 °C, pH 7.2, 1 mM TCEP, mean ± SD, read-out: IC50 [µM] ± STD
T1 construct: SARS-CoV-2 3CL^pro (Uniprot entry: P0DTD1, virus strain: hCoV-19/Wuhan/WIV04/2019) was cloned, expressed, and purified; GST (cleaved yes); made in house; host or cells: E. coli Lemo21 (DE3)
Procedure: The SARS-CoV-2 3CL^pro activity assay was performed using DABCYL-KTSAVLQ/SGFRKME-EDANS (Bachem, Switzerland) as substrate.
SARS-CoV-2 3CL^pro activity assay was performed using a fluorogenic substrate DABCYL-KTSAVLQ↓SGFRKME-EDANS (Bachem, Bubendorf, Switzerland) in a buffer containing 20 mM Tris pH 7.2, 200 mM NaCl, 1 mM EDTA, and 1 mM TCEP [31, 32, 33, 34]. The reaction mixture was pipetted in a Corning 96-well plate (Merck, Darmstadt, Germany) containing 0.5 µM protein. The assay was initiated with the addition of the substrate at a final concentration of 50 µM. The fluorescence intensities were measured at 60 s intervals over 30 min using an Infinite 200 PRO plate reader (Tecan, Männedorf, Switzerland), and the temperature was set to 37 °C. The excitation and emission wavelengths were 360 and 460 nm, respectively.
The activity assay described above investigated the inhibition of SARS-CoV-2 3CL^pro activity by Cro, L- and D-CDPs. 30 µM of the peptides was used for a preliminary screening test.
For the final inhibition assays, 0.5 µM of the protein was mixed with 0–300 µM Cro, 0–150 µM L-CDPs, and 0–125 µM D-CDPs and subsequently incubated for 30 min at RT. An additional experiment was conducted where the substrate and the inhibitor were added simultaneously (without incubation). When the substrate with a final concentration of 50 µM was added to the mixture, the fluorescence intensities were measured at 60 s intervals over 30 min using an Infinite 200 PRO plate reader (Tecan, Männedorf, Switzerland). The temperature was set to 37 °C, and the excitation and emission wavelengths were 360 and 460 nm, respectively. Inhibition assays were performed in triplicate.
The IC50 value was calculated by plotting the initial velocity against various concentrations of the combined molecules using a dose-response curve in GraphPad Prism5 software […]. Data are presented as mean ± SD.

[2] = tested on: all cell types investigated; details: rapid translocation efficiency; cited from earlier work
Description: These properties were mainly determined by the overall positive net surface charge distribution of crotamine. Characterised as a novel cell-penetrating polypeptide (CPP) nanocarrier, Cro has biotechnological ...

[3] = target: T1, SARS-CoV-2 3CL^pro; assay: Determination of inhibition mode (Lineweaver-Burk plot); format: biochemical; details: 0.5 µM 3CLpro, 30 min incubation at RT, triplicate
Procedure: The inhibition mode was determined using different final concentrations of the inhibitors and substrate. […] The remaining L-peptides were not tested.
Briefly, 0.5 µM SARS-CoV-2 3CL^pro was incubated with the inhibitor, in various concentrations, for 30 min at RT. Subsequently, the reaction was initiated by adding the corresponding concentration series of the substrate. The data were analysed using a Lineweaver-Burk plot; therefore, the reciprocal of velocity (1/V) vs the reciprocal of the substrate concentration (1/[S]) was compared. All measurements were performed in triplicate, and data are presented as mean ± SD.

[4] = target: pepsin (Sus scrofa, UniProt P00791); assay: L- and D-peptide stability against pepsin hydrolysis (simulated gastric fluid); format: in vitro ADME; details: simulated gastric fluid: 3.2 mg/mL pepsin, pH 1.0, 37 °C, 4 and 8 h; RP-HPLC
Chain of pepsin (P00791 60-385): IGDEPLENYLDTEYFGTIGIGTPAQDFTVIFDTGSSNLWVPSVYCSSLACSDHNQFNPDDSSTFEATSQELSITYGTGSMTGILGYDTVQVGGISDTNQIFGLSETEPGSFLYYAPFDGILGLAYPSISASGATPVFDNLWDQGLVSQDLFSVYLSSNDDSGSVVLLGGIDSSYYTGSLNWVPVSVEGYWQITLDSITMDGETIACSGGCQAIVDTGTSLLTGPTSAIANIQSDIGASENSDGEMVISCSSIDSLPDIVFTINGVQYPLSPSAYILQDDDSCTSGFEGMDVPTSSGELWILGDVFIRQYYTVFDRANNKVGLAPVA
Procedure: (§1) As protein hydrolysis is initiated by pepsin, we have performed a hydrolysis experiment simulating gastric fluid for both selected L- and D-peptides. After incubation over 4 and 8 h, the sample was analysed using RP-HPLC (Supplementary Figure S8).
(§2) The preparation of the pepsin solution was performed as described before. The experiment solution contains 2 mg/mL NaCl, 3.2 mg/mL pepsin, and 80 mM HCL at a pH 1.0. This solution simulated gastric fluid. […] Samples were taken after 0 h, 4 h, and 8 h. The samples were analysed by reversed-phase high-performance liquid chromatography (RP-HPLC). The RP-HPLC system (Agilent Technologies, Santa Clara, CA, USA; 1200 series) consisted of a manual injector, quaternary pump, a thermostatted column compartment, and a variable wavelength detector. Chromatography was performed with a C18 column (Agilent Technologies, Santa Clara, CA, USA; ZORBAX 300SB-C18 5 µm, 4.6 × 250 mm) at 25 °C and 214 nm with a flow rate of 1 mL/min. The sample injection volume was 20 µL. Chromatograms were recorded and analysed with the Agilent software ChemStation (G2175BA; B03.01). Mobile phases were acetonitrile (A) and water (B), each supplemented with 0.15% trifluoroacetic acid (TFA) (v/v). The samples were measured isocratically at 10% solvent A for 30 min.

[5] = target: T1, SARS-CoV-2 3CL^pro; assay: Inhibitor stability over 24 h (24 h inhibition experiment); format: biochemical; details: 0.5 µM 3CLpro with 5 µM peptide, 1/2 h to 24 h at RT, triplicate
Procedure: Briefly, 0.5 µM SARS-CoV-2 3CL^pro was incubated with 5 µM of the peptide and incubated for 1/2 h, 1 h, 2 h, 3 h, 4 h, 5 h, and 24 h at RT. The control was performed with the 3CL^pro in the absence of the peptide and measured together after each time point. Subsequently, the reaction was initiated by the addition of the substrate. All measurements were performed in triplicate, and data are presented as mean ± SD.

[6] = target: T1, SARS-CoV-2 3CL^pro; assay: Detergent-based (Triton X-100) control assay for aggregation-based promiscuous inhibition; format: biochemical; details: 0.001%, 0.01%, 0.1% Triton X-100; four peptide concentrations; triplicate
Procedure: A detergent-based control assay was performed to exclude inhibitors that possibly act as aggregators of the 3CL^pro by adding 0.001%, 0.01%, and 0.1% of Triton X-100 to the reaction. […] All measurements were performed in triplicate, and data are presented as mean ± SD.

[7] = tested on: Vero CCL-81 cells; assay: MTT cell viability assay; format: cell-based, African green monkey; details: n = 3
Procedure: Therefore, Vero cells were cultivated in DMEM medium supplemented with 2% fetal calf serum (FCS) and 1% penicillin/streptomycin. A total of 2000 cells per well in a volume of 100 µL were seeded on flat-bottomed 96-well plates (VWR, Radnor, USA) and incubated in a 95% humidified atmosphere with 5% CO2 at 37 °C for 24 h. Subsequently, the cells were treated with 0.2, 1, 5, 10, 25, 50, and 98 µM of each molecule at 37 °C with 5% CO2 for 24 h.
According to the manufacturer’s instructions, cell viability was measured using the Cell Proliferation Kit I (Roche, Basel, Switzerland) in a 3-fold determination. The absorbance of the formazan product was determined by measuring the absorption at 570 nm and subtracted by the absorbance at 690 nm in a microplate reader (BMG Labtech, Ortenberg, Germany). The results were normalised to the mean value of cells treated with medium only. As a […] control for cytotoxicity, 0.1% Triton X-100 diluted in the medium was used. Cell viability was calculated according to Equation (2):(T/C) × 100%(2) where T and C represented the optical density of the treated well and control groups, respectively.

[8] = tested on: SARS-CoV-2 B1.1 isolate (NRW-42) in Vero cells; format: cell-based
[9] = L- and D-peptide stability against pepsin hydrolysis (simulated gastric fluid); format: in vitro ADME; details: simulated gastric fluid with pepsin (3.2 mg/mL); simulated gastric fluid: 2 mg/mL NaCl, 3.2 mg/mL pepsin, 80 mM HCl, pH 1.0; 37 °C, 500 rpm; after 8 h; RP-HPLC C18, 214 nm; read-out: Peptide amount remaining after pepsin incubation
Procedure: as §1, §2

| Molecule | IC50 [1] | Time for translocation into cells [2] | Inhibition Type [3] | Stability against pepsin hydrolysis (in words) [4] | Inhibition of SARS-CoV-2 3CLpro over 24 h (stability of inhibitor) [5] | Aggregation-based inhibition (inhibition diminished by detergent) [6] | Cytotoxic effect at the calculated IC50 concentrations [7] | Viral RNA in cell culture supernatant [8] | Concentration giving 100% protease inhibition ([1]; dose-dependent study) | remaining at 8 h [9] |
| --- | --- | --- | --- | --- | --- | --- | --- | --- | --- | --- |
| YKQCHKKGGHCFPKEKICLPPSSDFGKMDCRWRWKCCKKGSG (disulfide 4-36, 11-30, 18-37) [Crotamine] | 40 ± 3.1 µM | ≤ 5 min | – | – | – | – | – | – | – | – |
| COC(=O)[C@@H](CCCCN)NC(=O)[C@@H](CCCCN)NC(=O)[C@@H](CS)NC(=O)[C@@H](CS)NC(=O)[C@@H](CCCCN)NC(=O)[C@@H](Cc1c[nH]c2ccccc12)NC(=O)[C@@H](CCCNC(=N)N)NC(=O)[C@@H](Cc1c[nH]c2ccccc12)NC(=O)[C@@H](CCCNC(=N)N)NC(=O)[C@@H](CS)NC(=O)[C@@H](CC(=O)O)NC(=O)[C@@H](CCSC)NC(=O)[C@@H](CCCCN)NC(C)=O [D-CDP1] (Ac-[dK][dM][dD][dC][dR][dW][dR][dW][dK][dC][dC][dK][dK]-OMe) | – | – | Competitive | stable against pepsin hydrolysis | constant inhibition | not observed | no cytotoxic effect | significant decrease in viral RNA | – | – |
| COC(=O)[C@H](CCCCN)NC(=O)[C@H](CCCCN)NC(=O)[C@H](CO)NC(=O)[C@H](CO)NC(=O)[C@H](CCCCN)NC(=O)[C@H](Cc1c[nH]c2ccccc12)NC(=O)[C@H](CCCNC(=N)N)NC(=O)[C@H](Cc1c[nH]c2ccccc12)NC(=O)[C@H](CCCNC(=N)N)NC(=O)[C@H](CS)NC(=O)[C@H](CC(=O)O)NC(=O)[C@H](CCSC)NC(=O)[C@H](CCCCN)NC(C)=O [L-CDP3] (Ac-KMDCRWRWKSSKK-OMe) | 8.5 ± 1 µM | – | – | – | – | – | – | – | – | – |
| COC(=O)[C@H](CCCCN)NC(=O)[C@H](CCCCN)NC(=O)[C@H](CS)NC(=O)[C@H](CS)NC(=O)[C@H](CCCCN)NC(=O)[C@H](Cc1c[nH]c2ccccc12)NC(=O)[C@H](CCCNC(=N)N)NC(=O)[C@H](Cc1c[nH]c2ccccc12)NC(=O)[C@H](CCCNC(=N)N)NC(=O)[C@H](CS)NC(=O)[C@H](CC(=O)O)NC(=O)[C@H](CCSC)NC(=O)[C@H](CCCCN)NC(C)=O [L-CDP1] (Ac-KMDCRWRWKCCKK-OMe) | – | – | Competitive | – | constant inhibition | not observed | – | – | 30 µM | ~50% |
